Test [1] concerns the target Melanocortin receptor 4 (Homo sapiens) (UniProt P32245). The test is described as follows: Displacement of Eu-DTAP-NDP-alpha-MSH-NH2 from MC4 receptor expressed in human HEK293 cells at 10^-5 to 10^-12 M after 1 hr by time resolved fluorescence method. It counts as cell-based.
The target of test [2] is T1, Gastrin/cholecystokinin type B receptor (Homo sapiens) (UniProt P32239).
T1 sequence (whole entry): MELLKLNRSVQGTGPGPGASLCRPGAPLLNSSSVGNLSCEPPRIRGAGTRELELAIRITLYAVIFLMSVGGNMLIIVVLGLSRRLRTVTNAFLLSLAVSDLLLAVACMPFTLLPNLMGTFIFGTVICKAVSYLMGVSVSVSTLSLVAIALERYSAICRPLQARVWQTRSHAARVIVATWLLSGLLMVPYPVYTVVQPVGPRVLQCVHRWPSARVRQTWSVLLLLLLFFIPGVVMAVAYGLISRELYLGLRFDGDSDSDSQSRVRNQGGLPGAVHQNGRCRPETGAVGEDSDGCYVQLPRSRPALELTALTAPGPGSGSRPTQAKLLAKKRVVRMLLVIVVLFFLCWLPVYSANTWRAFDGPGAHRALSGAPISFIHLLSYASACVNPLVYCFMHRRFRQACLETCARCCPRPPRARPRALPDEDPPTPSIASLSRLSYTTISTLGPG
The test is described as follows: Displacement of Eu-DTAP-CCK8-NH2 from CCK2 receptor expressed in human HEK293 cells at 10^-5 to 10^-12 M after 1 hr by time resolved fluorescence method. It counts as cell-based.

Active and inactive are the calls of the source. The calls are words filed in the database; no cut-off is given here.

Melanocortin receptor 4 (Homo sapiens), sequence (P32245 whole entry): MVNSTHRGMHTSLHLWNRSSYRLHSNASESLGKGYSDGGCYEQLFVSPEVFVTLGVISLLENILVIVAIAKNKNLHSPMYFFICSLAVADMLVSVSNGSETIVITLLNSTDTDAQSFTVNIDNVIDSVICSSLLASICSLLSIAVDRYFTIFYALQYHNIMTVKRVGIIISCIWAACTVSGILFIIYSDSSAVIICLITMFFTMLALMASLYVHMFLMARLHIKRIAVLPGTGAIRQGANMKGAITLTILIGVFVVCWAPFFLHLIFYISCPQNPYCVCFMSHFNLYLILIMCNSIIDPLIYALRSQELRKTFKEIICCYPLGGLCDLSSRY

For `NC(=O)[C@H](CO)NC(=O)CCCCCn1cc(CCCCOC[C@H]2O[C@@](COCCCCc3cn(CCCCCC(=O)N[C@@H](CO)C(N)=O)nn3)(O[C@H]3O[C@H](COCCCCc4cn(CCCCCC(=O)N[C@@H](CO)C(N)=O)nn4)[C@@H](OCCCCc4cn(CCCCCC(=O)N[C@@H](CO)C(N)=O)nn4)[C@H](OCCCCc4cn(CCCCCC(=O)N[C@@H](CO)C(N)=O)nn4)[C@H]3OCCCCc3cn(CCCCCC(=O)N[C@@H](CO)C(N)=O)nn3)[C@@H](OCCCCc3cn(CCCCCC(=O)N[C@@H](CO)C(N)=O)nn3)[C@@H]2OCCCCc2cn(CCCCCC(=O)N[C@@H](CO)C(N)=O)nn2)nn1`, the outcome in test [1] and in test [2] was inactive.

Values taken from ChEMBL document CHEMBL1914415, “A sucrose-derived scaffold for multimerization of bioactive peptides” (Bioorg Med Chem, 2011).
